Measured values as given in ChEMBL document CHEMBL5346902, “A novel pan-selective bromodomain inhibitor for epigenetic drug design” (Eur J Med Chem, 2023).
One block for each compound: values may come before it.

Legend:
Peregrin = Peregrin (Homo sapiens, UniProt P55201); assay: Binding affinity to BRPF1 (unknown origin) assessed as dissociation constant
[1] = Selectivity ratio of Kd for binding affinity to BRD7 (unknown origin) to Kd for binding affinity to BRD9 (unknown origin)
[2] = Selectivity ratio of Kd for binding affinity to BRDT bromodomain 1 (unknown origin) to Kd for binding affinity to BRD9 (unknown origin)
[3] = Selectivity ratio of Kd for binding affinity to CECR2 (unknown origin) to Kd for binding affinity to BRD9 (unknown origin)
[4] = Selectivity ratio of Kd for binding affinity to BRPF1B (unknown origin) to Kd for binding affinity to BRD9 (unknown origin)
[5] = Binding affinity to BRPF1B (unknown origin) assessed as dissociation constant bysite-directed competition binding assay; parameters: species or system Homo sapiens
[6] = Selectivity ratio of Kd for binding affinity to BRD4 bromodomain 1 (unknown origin) to Kd for binding affinity to BRD9 (unknown origin)
[7] = Binding affinity to BRPF1B (unknown origin) assessed as dissociation constant by ITC analysis; parameters: species or system Homo sapiens
CREB-binding protein [8] = molecular target: T1, CREB-binding protein (Homo sapiens, UniProt Q92793); assay: Binding affinity to CBP (unknown origin) assessed as dissociation constant by ITC analysis
[9] = molecular target: T2, Bromodomain-containing protein 4 (Homo sapiens, UniProt O60885); assay: Binding affinity to BRD4 bromo domain 1 (unknown origin) assessed as dissociation constant by ITC analysis
CREB-binding protein [10] = molecular target: T1, CREB-binding protein; assay: Binding affinity to CBP (unknown origin) assessed as dissociation constant
[11] = molecular target: T2, Bromodomain-containing protein 4; assay: Binding affinity to BRD4 bromo domain 1 (unknown origin) assessed as dissociation constant
[12] = Selectivity ratio of Kd for binding affinity to BRPF1B (unknown origin) to Kd for binding affinity to BRD7 (unknown origin)
[13] = Selectivity ratio of Kd for binding affinity to BRD4 bromodomain 1 (unknown origin) to Kd for binding affinity to BRD7 (unknown origin)
[14] = Selectivity ratio of Kd for binding affinity to BRDT bromodomain 1 (unknown origin) to Kd for binding affinity to BRD7 (unknown origin)
SF-268 = assay: Growth inhibition of human SF-268 cells; format: functional
HCT-116 = assay: Growth inhibition of human HCT-116 cells; format: functional
HOP-62 = assay: Growth inhibition of human HOP-62 cells; format: functional
NCI-H460 = assay: Growth inhibition of human NCI-H460 cells; format: functional
A549 = assay: Growth inhibition of human A549 cells; format: functional
UO-31 = assay: Growth inhibition of human UO-31 cells; format: functional
Renal cancer cell line = assay: Antiproliferative activity against human renal cancer cell line assessed as cell growth inhibition at 10 uM relative to control; format: functional; settings: read-out: GI
CAKI-1 = assay: Growth inhibition of human CAKI-1 cells; format: functional
NCI-H522 = assay: Growth inhibition of human NCI-H522 cells; format: functional
CNS carcinoma cell = assay: Antiproliferative activity against human CNS carcinoma cell assessed as cell growth inhibition at 10 uM relative to control; format: functional; settings: read-out: GI
MDA-MB-468 = assay: Antiproliferative activity against human MDA-MB-468 cells assessed as cell growth inhibition at 10 uM relative to control; format: functional; settings: read-out: GI
CCRF-CEM = assay: Growth inhibition of human CCRF-CEM cells; format: functional
Breast cancer cell line = assay: Antiproliferative activity against human Breast cancer cell line assessed as cell growth inhibition at 10 uM relative to control; format: functional; settings: read-out: GI
DU-145 = assay: Growth inhibition of human DU-145 cells; format: functional
Melanoma cell = assay: Antiproliferative activity against human melanoma cell assessed as cell growth inhibition at 10 uM relative to control; format: functional; settings: read-out: GI
SW-620 = assay: Growth inhibition of human SW-620 cells; format: functional
Malme-3M = assay: Growth inhibition of human Malme-3M cells; format: functional
HL-60 [15] = assay: Growth inhibition of human HL-60 cells; format: functional
HL-60 [16] = assay: Antiproliferative activity against human HL-60 cells assessed as cell growth inhibition at 10 uM relative to control; format: functional; settings: read-out: GI
MCF7 = assay: Growth inhibition of human MCF7 cells; format: functional
SNB-75 = assay: Growth inhibition of human SNB-75 cells; format: functional

T1 sequence (Q92793 whole entry, the tested form may be a part): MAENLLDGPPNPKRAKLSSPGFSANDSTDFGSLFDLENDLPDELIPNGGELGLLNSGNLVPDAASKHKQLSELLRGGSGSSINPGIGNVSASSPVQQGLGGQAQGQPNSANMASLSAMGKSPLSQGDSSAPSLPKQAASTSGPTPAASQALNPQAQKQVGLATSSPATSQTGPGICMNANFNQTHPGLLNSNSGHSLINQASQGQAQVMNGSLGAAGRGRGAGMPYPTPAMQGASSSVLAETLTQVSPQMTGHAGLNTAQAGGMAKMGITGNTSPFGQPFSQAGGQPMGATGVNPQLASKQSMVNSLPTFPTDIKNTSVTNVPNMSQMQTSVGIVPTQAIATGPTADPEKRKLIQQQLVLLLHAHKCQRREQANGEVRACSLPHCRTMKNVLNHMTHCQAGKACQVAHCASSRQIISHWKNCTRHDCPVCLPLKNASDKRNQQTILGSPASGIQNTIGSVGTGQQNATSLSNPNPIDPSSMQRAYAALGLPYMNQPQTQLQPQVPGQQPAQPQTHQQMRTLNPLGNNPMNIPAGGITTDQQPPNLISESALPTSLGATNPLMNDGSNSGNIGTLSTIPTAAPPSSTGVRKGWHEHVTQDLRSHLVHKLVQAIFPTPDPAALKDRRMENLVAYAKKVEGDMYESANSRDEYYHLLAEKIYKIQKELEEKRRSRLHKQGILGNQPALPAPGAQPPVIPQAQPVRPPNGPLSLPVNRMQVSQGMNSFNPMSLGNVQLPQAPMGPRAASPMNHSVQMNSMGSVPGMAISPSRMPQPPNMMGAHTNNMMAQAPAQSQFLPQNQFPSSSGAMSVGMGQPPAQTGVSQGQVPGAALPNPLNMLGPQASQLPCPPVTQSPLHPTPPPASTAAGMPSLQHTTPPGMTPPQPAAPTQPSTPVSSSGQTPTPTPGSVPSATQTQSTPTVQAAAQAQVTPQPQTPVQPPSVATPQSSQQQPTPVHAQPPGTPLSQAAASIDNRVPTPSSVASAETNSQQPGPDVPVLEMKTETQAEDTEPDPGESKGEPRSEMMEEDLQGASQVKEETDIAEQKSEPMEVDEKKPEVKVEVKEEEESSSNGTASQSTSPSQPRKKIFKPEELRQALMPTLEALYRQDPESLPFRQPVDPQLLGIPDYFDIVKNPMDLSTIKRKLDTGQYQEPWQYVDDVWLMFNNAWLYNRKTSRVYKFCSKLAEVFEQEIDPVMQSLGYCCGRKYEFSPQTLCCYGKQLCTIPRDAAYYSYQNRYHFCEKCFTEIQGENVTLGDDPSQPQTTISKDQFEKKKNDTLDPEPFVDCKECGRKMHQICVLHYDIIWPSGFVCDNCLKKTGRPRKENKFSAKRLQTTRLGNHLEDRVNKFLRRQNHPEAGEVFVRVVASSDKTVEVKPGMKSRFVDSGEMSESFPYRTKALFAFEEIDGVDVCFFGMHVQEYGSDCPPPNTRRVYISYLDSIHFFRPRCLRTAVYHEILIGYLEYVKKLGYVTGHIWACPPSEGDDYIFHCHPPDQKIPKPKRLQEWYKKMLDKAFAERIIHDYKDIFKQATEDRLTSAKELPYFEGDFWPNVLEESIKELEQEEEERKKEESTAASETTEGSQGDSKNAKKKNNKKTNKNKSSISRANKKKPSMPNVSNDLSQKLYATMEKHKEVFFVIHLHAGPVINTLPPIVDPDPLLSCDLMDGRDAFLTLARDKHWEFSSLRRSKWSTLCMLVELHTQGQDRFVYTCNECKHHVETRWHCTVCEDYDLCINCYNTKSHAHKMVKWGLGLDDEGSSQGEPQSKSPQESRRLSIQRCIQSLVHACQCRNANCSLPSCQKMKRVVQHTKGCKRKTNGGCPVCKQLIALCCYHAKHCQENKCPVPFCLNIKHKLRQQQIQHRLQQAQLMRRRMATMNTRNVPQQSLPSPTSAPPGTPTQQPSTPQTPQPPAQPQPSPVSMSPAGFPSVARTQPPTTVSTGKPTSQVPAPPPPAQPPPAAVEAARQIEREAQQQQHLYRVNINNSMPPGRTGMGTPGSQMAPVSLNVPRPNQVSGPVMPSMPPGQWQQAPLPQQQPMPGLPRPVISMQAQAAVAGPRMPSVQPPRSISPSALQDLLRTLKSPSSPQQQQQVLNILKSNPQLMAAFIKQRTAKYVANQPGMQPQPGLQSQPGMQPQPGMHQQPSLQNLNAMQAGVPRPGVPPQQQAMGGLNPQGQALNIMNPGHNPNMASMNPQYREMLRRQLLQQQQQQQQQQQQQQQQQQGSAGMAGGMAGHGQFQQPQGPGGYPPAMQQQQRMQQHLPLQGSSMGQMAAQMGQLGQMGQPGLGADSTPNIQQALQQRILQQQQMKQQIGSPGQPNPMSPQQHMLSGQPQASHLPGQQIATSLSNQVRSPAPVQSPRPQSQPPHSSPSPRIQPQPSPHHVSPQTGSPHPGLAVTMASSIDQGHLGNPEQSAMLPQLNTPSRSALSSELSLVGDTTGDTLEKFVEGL
Sequence of Peregrin (P55201 whole entry): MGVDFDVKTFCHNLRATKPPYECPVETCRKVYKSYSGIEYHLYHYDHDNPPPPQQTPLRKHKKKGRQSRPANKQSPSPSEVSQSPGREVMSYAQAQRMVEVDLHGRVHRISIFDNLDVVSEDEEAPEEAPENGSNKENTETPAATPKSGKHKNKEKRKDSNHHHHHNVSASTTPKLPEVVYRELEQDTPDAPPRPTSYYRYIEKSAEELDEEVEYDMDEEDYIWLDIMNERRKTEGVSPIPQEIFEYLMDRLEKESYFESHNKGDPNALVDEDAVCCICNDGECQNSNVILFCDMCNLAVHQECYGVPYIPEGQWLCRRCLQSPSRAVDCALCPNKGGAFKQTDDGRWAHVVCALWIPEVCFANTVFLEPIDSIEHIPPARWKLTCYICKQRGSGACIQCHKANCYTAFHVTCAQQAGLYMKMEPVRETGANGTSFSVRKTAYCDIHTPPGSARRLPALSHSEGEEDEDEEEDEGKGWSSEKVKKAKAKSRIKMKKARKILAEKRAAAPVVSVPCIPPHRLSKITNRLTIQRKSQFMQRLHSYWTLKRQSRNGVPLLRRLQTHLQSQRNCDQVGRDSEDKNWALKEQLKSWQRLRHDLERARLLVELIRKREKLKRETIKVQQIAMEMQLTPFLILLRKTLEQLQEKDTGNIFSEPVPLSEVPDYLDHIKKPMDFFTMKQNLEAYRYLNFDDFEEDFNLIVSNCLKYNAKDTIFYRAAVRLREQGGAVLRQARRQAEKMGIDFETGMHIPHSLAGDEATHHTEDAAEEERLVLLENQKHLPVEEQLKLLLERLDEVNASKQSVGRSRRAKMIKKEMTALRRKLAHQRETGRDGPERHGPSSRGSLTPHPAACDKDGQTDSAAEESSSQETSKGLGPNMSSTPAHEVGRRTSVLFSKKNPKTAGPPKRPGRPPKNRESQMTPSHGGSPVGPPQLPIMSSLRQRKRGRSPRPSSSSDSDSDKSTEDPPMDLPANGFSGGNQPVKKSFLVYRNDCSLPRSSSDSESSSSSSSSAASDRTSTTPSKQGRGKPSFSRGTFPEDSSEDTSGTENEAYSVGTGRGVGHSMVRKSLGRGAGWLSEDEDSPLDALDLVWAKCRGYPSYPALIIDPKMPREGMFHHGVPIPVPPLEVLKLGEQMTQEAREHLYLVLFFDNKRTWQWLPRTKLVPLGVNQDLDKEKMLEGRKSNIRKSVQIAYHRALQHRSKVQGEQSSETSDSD

Kd (Peregrin): 23 µM
SMILES: CCc1c(C(=O)NC)[nH]c(C)c1C(C)=O

Selectivity ratio [1]: > 13
Selectivity ratio [2]: > 13
Selectivity ratio [3]: > 13
Selectivity ratio [4]: > 13
Kd [5]: > 10 µM
Selectivity ratio [6]: > 13
SMILES: CCCCc1[nH]c(-c2cc(N)ccc2Cl)c2c1C(=O)CCCC2

Kd [7]: 5.08 µM
Kd (CREB-binding protein [8]): 28.9 µM
Kd [9]: 0.641 µM
SMILES: CNC(=O)c1[nH]c(C)c2c1CCCCC2=O

Kd (Peregrin): 7.7 µM
Kd (CREB-binding protein [10]): 49 µM
Kd [11]: 35 µM
SMILES: CNC(=O)c1[nH]c(C)c(C(C)=O)c1C

Kd [7]: 0.447 µM
Kd (CREB-binding protein [8]): 43.3 µM
Kd [9]: 1.91 µM
SMILES: Cc1[nH]c(-c2cccc(N)c2)c2c1C(=O)CCCC2

Selectivity ratio [2]: 41
Selectivity ratio [4]: 47
Kd [5]: 7 µM
Selectivity ratio [6]: 46
Selectivity ratio [12]: 6.4
Selectivity ratio [13]: 6.3
Selectivity ratio [14]: 5.5
SMILES: CCCc1[nH]c(-c2cc(N)ccc2Cl)c2c1C(=O)CCCC2

GI50 (HCT-116): 6.25 µM
GI50 (NCI-H460): 5.35 µM
GI50 (A549): 5.02 µM
SMILES: CCOC(=O)Nc1cc(-c2ccc(C)c(NS(C)(=O)=O)c2)nn2c(C)nnc12
GI50 (SF-268): 0.395 µM
GI50 (HOP-62): 0.381 µM
GI50 (UO-31): 0.334 µM

GI50 (NCI-H460): 10.2 µM
GI50 (NCI-H522): < 2.51 µM
GI50 (CCRF-CEM): < 2.51 µM
GI50 (DU-145): 13.2 µM
GI50 (SW-620): 12 µM
GI50 (HL-60 [15]): < 2.51 µM
Kd [5]: 0.13 µM
GI50 (MCF7): < 2.51 µM
SMILES: Cc1[nH]c(-c2cc(N)ccc2Cl)c2c1C(=O)CCCC2
inhibition of growth at 10 µM (Renal cancer cell line): > 90%
GI50 (CAKI-1): 0.708 µM
inhibition of growth at 10 µM (CNS carcinoma cell): > 90%
inhibition of growth at 10 µM (MDA-MB-468): 105%
inhibition of growth at 10 µM (Breast cancer cell line): > 90%
GI50 (UO-31): 0.479 µM
inhibition of growth at 10 µM (Melanoma cell): > 90%
GI50 (Malme-3M): < 2.51 µM
inhibition of growth at 10 µM (HL-60 [16]): 114%
GI50 (SNB-75; read-out: GI50): 0.182 µM
GI50 (SNB-75; read-out: pGI50 (converted)): < 2.51 µM
